Results as given in ChEMBL document CHEMBL3576790, “Novel Small Molecule Inhibitors of Activated Thrombin Activatable Fibrinolysis Inhibitor (TAFIa) from Natural Product Anabaenopeptin” (J Med Chem, 2015).
Blank lines part the entries; values can stand above or below the compound they belong to. *1 amine or outer side, *2 acyl side, *3 side chain or, on linkers, in order; H or OH if unused. Where a SMILES comes first, the peptide text is derived from it. Bridges are numbered along the chain shown (N, C = ends). [ ]: non-standard residue; d: D form. hTyr = N[C@@H](CCc1ccc(O)cc1)C(=O)O; NMeA = CN[C@@H](C)C(=O)O; CO = O=C([*:1])[*:2]

Key:
[1] = target: T1, Carboxypeptidase B2 (Homo sapiens, UniProt Q96IY4)
T1 sequence (Q96IY4 whole entry): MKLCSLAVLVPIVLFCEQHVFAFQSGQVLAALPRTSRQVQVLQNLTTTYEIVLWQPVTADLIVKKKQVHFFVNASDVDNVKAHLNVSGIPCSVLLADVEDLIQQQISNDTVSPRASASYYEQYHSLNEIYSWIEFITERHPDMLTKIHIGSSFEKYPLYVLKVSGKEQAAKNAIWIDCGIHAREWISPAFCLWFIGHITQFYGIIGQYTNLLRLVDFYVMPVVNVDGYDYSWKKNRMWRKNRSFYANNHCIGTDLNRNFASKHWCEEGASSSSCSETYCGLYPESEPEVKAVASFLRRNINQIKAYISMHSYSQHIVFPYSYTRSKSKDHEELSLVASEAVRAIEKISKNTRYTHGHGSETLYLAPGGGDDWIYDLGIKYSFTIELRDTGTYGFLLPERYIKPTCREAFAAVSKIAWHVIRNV
Description: Inhibition of human activated TAFI incubated for 15 mins by microtiter plate reader based assay

[2] = target: T2, Coagulation factor VII (Homo sapiens, UniProt P08709); assay: Inhibition of factor7a (unknown origin)
T2 sequence (P08709 whole entry): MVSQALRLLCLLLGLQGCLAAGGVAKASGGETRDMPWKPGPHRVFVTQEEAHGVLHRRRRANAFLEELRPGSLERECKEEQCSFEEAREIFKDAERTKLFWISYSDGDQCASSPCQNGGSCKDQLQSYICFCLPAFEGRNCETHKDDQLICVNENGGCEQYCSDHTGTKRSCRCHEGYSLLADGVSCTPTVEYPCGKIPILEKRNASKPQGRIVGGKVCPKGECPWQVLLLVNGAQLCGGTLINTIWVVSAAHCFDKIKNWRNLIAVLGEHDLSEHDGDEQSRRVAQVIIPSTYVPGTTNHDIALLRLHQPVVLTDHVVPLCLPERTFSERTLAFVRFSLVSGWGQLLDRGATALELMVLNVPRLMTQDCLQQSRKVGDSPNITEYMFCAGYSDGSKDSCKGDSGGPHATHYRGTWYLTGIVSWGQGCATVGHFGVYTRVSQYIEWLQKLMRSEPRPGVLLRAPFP

[3] = target: Coagulation factor X (Homo sapiens, UniProt P00742); assay: Inhibition of factor10a (unknown origin)
[4] = target: T3, Carboxypeptidase N catalytic chain (Homo sapiens, UniProt P15169); assay: Inhibition of CPN (unknown origin)
T3 sequence (P15169 whole entry): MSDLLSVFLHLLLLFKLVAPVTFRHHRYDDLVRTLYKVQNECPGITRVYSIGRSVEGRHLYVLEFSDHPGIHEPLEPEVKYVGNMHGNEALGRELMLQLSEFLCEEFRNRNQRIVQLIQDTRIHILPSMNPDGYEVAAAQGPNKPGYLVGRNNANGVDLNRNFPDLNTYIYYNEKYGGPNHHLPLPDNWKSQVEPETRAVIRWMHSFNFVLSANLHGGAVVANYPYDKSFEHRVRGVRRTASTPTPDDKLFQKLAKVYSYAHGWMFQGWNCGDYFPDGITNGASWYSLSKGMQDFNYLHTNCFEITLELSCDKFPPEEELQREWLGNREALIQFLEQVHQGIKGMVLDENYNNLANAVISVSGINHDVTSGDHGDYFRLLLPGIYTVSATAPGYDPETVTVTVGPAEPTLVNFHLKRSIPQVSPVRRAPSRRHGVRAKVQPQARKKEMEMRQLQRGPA

[5] = target: Prothrombin (Homo sapiens, UniProt P00734); assay: Inhibition of factor2a (unknown origin)
[6] = target: T4, Carboxypeptidase A1 (Homo sapiens, UniProt P15085); assay: Inhibition of CPA (unknown origin)
T4 sequence (P15085 whole entry): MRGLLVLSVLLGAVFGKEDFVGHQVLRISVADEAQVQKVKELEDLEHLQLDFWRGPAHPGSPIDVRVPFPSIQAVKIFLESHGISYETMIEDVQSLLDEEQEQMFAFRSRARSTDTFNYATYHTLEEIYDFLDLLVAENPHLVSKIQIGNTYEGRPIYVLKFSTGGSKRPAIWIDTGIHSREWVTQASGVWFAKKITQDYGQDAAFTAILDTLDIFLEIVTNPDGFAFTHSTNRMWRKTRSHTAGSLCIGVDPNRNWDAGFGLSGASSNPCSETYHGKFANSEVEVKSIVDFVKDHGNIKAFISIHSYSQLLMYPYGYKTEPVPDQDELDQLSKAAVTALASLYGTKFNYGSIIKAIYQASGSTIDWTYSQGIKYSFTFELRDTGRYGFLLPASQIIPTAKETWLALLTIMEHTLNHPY

[7] = target: Coagulation factor XI (Homo sapiens, UniProt P03951); assay: Inhibition of factor11a (unknown origin)
Coagulation factor XI, sequence (P03951 19-387 limits assumed): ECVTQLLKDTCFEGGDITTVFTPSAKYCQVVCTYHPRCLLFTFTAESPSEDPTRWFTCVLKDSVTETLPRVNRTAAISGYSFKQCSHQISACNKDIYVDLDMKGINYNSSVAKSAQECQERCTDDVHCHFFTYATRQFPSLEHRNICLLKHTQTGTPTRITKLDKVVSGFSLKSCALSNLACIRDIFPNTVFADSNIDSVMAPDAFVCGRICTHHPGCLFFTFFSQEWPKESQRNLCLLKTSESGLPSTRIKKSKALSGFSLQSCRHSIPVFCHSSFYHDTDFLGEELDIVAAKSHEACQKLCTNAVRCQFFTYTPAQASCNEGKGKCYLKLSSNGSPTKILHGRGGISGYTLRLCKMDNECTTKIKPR
Coagulation factor XI, sequence (P03951 388-625 limits assumed): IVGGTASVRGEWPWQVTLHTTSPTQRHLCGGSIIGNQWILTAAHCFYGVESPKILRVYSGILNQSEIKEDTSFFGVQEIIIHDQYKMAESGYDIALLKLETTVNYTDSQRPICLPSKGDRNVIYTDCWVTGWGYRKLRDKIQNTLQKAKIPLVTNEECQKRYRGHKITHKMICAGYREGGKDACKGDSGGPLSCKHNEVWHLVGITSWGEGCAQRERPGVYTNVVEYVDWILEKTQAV

Coagulation factor X, sequence (P00742 41-179 limits assumed): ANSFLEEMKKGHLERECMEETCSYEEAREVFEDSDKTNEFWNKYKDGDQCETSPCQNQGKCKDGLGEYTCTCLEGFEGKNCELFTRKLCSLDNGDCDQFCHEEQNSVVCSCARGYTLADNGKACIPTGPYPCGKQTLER
Coagulation factor X, sequence (P00742 235-488 limits assumed): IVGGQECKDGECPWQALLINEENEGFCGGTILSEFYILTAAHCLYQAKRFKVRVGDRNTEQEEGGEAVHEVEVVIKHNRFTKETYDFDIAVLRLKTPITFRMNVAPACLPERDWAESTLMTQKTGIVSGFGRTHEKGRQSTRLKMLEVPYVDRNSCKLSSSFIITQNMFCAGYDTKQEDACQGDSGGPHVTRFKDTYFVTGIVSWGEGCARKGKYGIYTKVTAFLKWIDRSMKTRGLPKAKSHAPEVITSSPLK

SMILES: CC(C)[C@@H]1NC(=O)[C@H](NC(=O)N[C@@H](CCCCN)C(=O)O)CCCCNC(=O)[C@H](Cc2ccccc2)NC(=O)[C@H](C)N(C)C(=O)[C@H](CCc2ccc(O)cc2)NC1=O
- IC50 [2]: > 100000 nM
- IC50 [3]: > 100000 nM
- IC50 [4]: 5700 nM
- IC50 [5]: 6000 nM
- IC50 [6]: > 100000 nM
- IC50 [7]: 12000 nM

SMILES: NCCCC[C@H](NC(=O)N[C@H](CC1CCCCC1)C(=O)NCC(c1ccccc1)c1ccccc1)C(=O)O
- IC50 [1]: 120 nM

SMILES: CC12CCC(C(NC(=O)[C@H](NC(=O)N[C@@H](CCCCN)C(=O)O)C3CCCCC3)C1)C2(C)C (stereo partly specified)
- IC50 [1]: 1000 nM

SMILES: CCC[C@@H](NC(=O)N[C@@H](CCCCN)C(=O)O)C(=O)NC1CC2(C)CCC1C2(C)C (stereo partly specified)
- IC50 [1]: 15 nM

SMILES: CC12CCC(C(NC(=O)[C@@H](CC3CCCCC3)NC(=O)N[C@@H](Cc3ccc(N)nc3)C(=O)O)C1)C2(C)C (stereo partly specified)
- IC50 [1]: 1 nM

SMILES: CC12CCC(C(NC(=O)[C@@H](CC3CCCCC3)NC(=O)N[C@H](C#N)Cc3ccc(N)nc3)C1)C2(C)C (stereo partly specified)
- IC50 [1]: 54000 nM

SMILES: CC12CCC(C(NC(=O)[C@@H](Cc3ccccc3)NC(=O)N[C@@H](CCCCN)C(=O)O)C1)C2(C)C (single isomer, unassigned; (+))
- IC50 [1]: 15 nM

SMILES: CC(C)[C@@H]1NC(=O)[C@H](NC(=O)N[C@@H](CCCNC(=N)N)C(=O)O)CCCCNC(=O)[C@H](Cc2ccccc2)NC(=O)[C@H](C)N(C)C(=O)[C@H](CCc2ccc(O)cc2)NC1=O [ANABAENOPEPTIN B] ({Arg-CO}-[dK]V[hTyr][NMeA]F; lactam 1-C)
- IC50 [2]: > 100000 nM
- IC50 [3]: > 100000 nM
- IC50 [5]: 1600 nM
- IC50 [7]: 24000 nM

SMILES: CC[C@H](C)[C@@H]1NC(=O)[C@H](NC(=O)N[C@@H](CCCNC(=N)N)C(=O)O)CCCCNC(=O)[C@H](Cc2ccccc2)NC(=O)[C@H](C)N(C)C(=O)[C@H](CCc2ccc(O)cc2)NC1=O [ANABAENOPEPTIN F] ({Arg-CO}-[dK]I[hTyr][NMeA]F; lactam 1-C)
- IC50 [2]: 35000 nM
- IC50 [3]: 38000 nM
- IC50 [5]: 350 nM
- IC50 [7]: 3900 nM

Continued by falling IC50 [1], values first:

- IC50 [1]: 6100 nM
SMILES: CC(C)(NC(=O)N[C@@H](CCCCN)C(=O)O)C(=O)NC1CC2(C)CCC1C2(C)C (stereo partly specified)

- IC50 [1]: 1400 nM
SMILES: CC(C)CCNC(=O)[C@@H](CCCCNC(=O)OCc1ccccc1)NC(=O)N[C@@H](CCCCN)C(=O)O

- IC50 [1]: 570 nM
SMILES: CC12CCC(C(NC(=O)[C@@H](CC3CCCCC3)NC(=O)N[C@@H](Cc3ccc(N)nc3)C(N)=O)C1)C2(C)C (stereo partly specified)

- IC50 [1]: 250 nM
SMILES: CC12CCC(C(NC(=O)[C@@H](CC3CCCCC3)NC(=O)N[C@H](Cc3ccc(N)nc3)C(=O)O)C1)C2(C)C (stereo partly specified)

- IC50 [1]: 57 nM
SMILES: CC(C)C[C@@H](NC(=O)N[C@@H](CCCCN)C(=O)O)C(=O)NC1CC2(C)CCC1C2(C)C (single isomer, unassigned; (+))

- IC50 [1]: 38 nM
SMILES: CC12CCC(C(NC(=O)[C@@H](CC3CCCCC3)NC(=O)N[C@@H](CS(=O)(=O)CCN)C(=O)O)C1)C2(C)C (stereo partly specified)
